The source of these data is patent publication US12629356B2, “Expansion of tumor infiltrating lymphocytes with potassium channel agonists and therapeutic uses thereof” (Iovance Biotherapeutics, Inc., priority 2017, dated 2026).

For assay [1], the system named is pre-REP TILs from ovarian and breast cancer tumor fragments. Description: Absolute cell counts of pre-REP TILs from ovarian and breast tumor fragments with or without SKA-31. It counts as cell-based. Particulars: 50 nM SKA-31 with IL-2, three weeks, vs IL-2 alone. Here is the method: Tumor fragments from ovarian and breast cancer (triple positive, ER^+/PR^+/HER2^+) tumors were grown in a pre-REP stage with either IL-2 alone or IL-2 with SKA-31 (Formula (2)) at a concentration of 50 nM. The resected tumor samples were cut into 3-5 mm^2 fragments. Four to eight tumor fragments were placed into GREX-10 flasks containing TIL CM (previously described) with IL-2 (6000 IU/mL). The culture was supplemented with IL-2 every 5 days until harvested. After three weeks, TILs were collected, counted, and stained with anti-CD8 antibody (clone RPA-T8, BioLegend), anti-CD4 antibody (OKT-4, BioLegend), anti-CD3 antibody (clone SP34-2, BD Biosciences), and AmCyan (Thermo Fisher Scientific), and analyzed by flow cytometry using a BD FACS CANTO II system.

Assay [2] concerns Melanoma TIL lines. Nature of the assay: Fold expansion of melanoma TIL lines in 14-day REP with or without SKA-31. Type of assay: cell-based, human. The note with it: ten melanoma TIL lines; 50 mM SKA-31 (so in the source); day 14 of REP; p=0.002. Here is the method: (§1) Melanoma TIL lines were propagated using a REP protocol for 14 days with or without the KCa3.1 agonist SKA-31 (Formula (2)). Ten TIL lines (M004, M10^11, M1017, M1020, M1021, M1025, M1030, M1034, M1036, and M1045) were propagated with REP with anti-CD3 OKT-3 antibody (Miltenyi Biotech) (30 ng/mL) using irradiated PBMC feeder cells at ratio of TILs to feeder cells of 1 to 100 in G-REX 24 well plates (Wilson Wolf Manufacturing). Approximately 1×10^6 TILs were used per G-REX 24 well on day 0 in 8 mL of TIL REP media (TIL CM and Aim V media (Thermo Fisher Scientific) at a 1 to 1 ratio) with or without 50 mM of SKA-31. On day 2, the cultures were supplemented with IL-2 (6000 IU/mL). Half of the media was replaced with fresh AIMV media on day 5 with or without 50 mM SKA-31. The REP cultures were supplemented with IL-2 (3000 IU/mL) on day 9 and 12 respectively. On day 14, TTLs were counted and calculated for fold expansion.

In assay [3] the test system is Melanoma TIL lines. Description: Phenotyping of melanoma TILs (CD27, CD28) at end of REP with or without SKA-31. Type of assay: cell-based, human. Particulars: ten melanoma TIL lines, end of 14-day REP, vs TILs without SKA-31. Here is the method: as §1
Ten melanoma TIL lines were expanded with the REP protocol for 14 days with or without the KCa3.1 agonist SKA-31 (Formula (2)) as in Example 2. At the end of each REP, TILs were harvested and phenotyped with anti-CD3 (clone SP34-2, BD Biosciences), anti-CD28 (clone CD28.2, BD biosciences), and anti-CD27 (M-T271, BD Biosciences) antibodies.

Assay [4] deals with normal donor PBMC lines and TIL lines from melanoma tumors. Description: Kinetic expression of KCa3.1 after activation with anti-CD3 and anti-CD28 with or without SKA-31 (flow cytometry). Type of assay: cell-based, human. The note with it: 50 nM SKA-31; PBMCs and melanoma TILs stimulated with anti-CD3 and anti-CD28; day 1, 3 and 7. The procedure: To study kinetic expression of KCa3.1, wo normal donor PBMC lines and three TIL lines from melanoma tumors were activated with anti-CD3 and anti-CD28 with the KCa3.1 agonist SKA-31 (Formula (2)). PBMCs and TILs at day 0 (baseline) were used as controls for KCa3.1 expression. Normal donor PBMCs and three TIL lines (M004, M10^11, and M1023) were thawed and cultured in TIL culture media (TIL CM) containing RPMI 1640 (Thermo Fisher Scientific, Waltham, MA, USA), 1 mM Glutamax (Thermo Fisher Scientific), 1 mM pyruvate (Thermo Fisher Scientific), 50 μM 2-mercaptoethanol (Thermo Fisher Scientific), and 1× Pen-Strep (Thermo Fisher Scientific), and 10% human AB serum (Gemini Bio-Products, West Sacramento, CA, USA) with IL-2 (6000 IU/mL) (CellGenix Inc., Portsmouth, NH, USA). On the next day, PBMCs were activated with anti-CD3 (Clone CLB-T3/4.E, Cell Sciences) ([…]) and anti-CD28 (Clone 28.2, BioLegend, San Diego, CA, USA) (500 ng/mL) with or without 50 nM SKA-31 (Sigma-Aldrich Co., St. Louis, MO, USA). […] Cells were harvested on day 1, 3, and 7 following activation, stained with anti-CD3 (clone SP34-2, BD Biosciences), anti-CD8 (clone RPA-T8, BioLegend), anti-KCa3.1 (Polyclonal, Alomone Lab), and AmCyan (Thermo Fisher Scientific), and analyzed by flow cytometry using a BD FACS CANTO II system.

The test system of assay [5] is melanoma cells. Nature of the assay: Tumor cell killing by TILs prepared with and without SKA-31 (caspase-3 marker). Particulars: different E:T ratios. Type of assay: cell-based.
Assay [6] has as its system pre-REP TILs from tumor fragments. Description: CCR7+ and CD25+ expression in pre-REP TILs grown with IL-2 alone or IL-2 with SKA-31 (flow cytometry). It counts as cell-based. The note with it: vs no treatment. Here is the method:
Three tumors (kidney, estrogen receptor positive (ER^+) breast, and melanoma) were grown with either IL-2 alone or IL-2 with SKA-31 […] to evaluate the performance of a KCa3.1 agonist in the pre-REP stage. The resected tumor samples were cut into 3-5 mm^2 fragments. Four to eight tumor fragments were placed into GREX-10 flask containing TIL CM (previously described) with IL-2 (6000 IU/mL) with or without 100 nM SKA-31. The culture was supplemented with IL-2 every 5 days until harvested. After three weeks, TIL was collected, counted, and stained with anti-CD8 (clone RPA-T8, BioLegend), anti-CD4 (OKT-4, BioLegend), anti-CCR7 (BioLegend G043H7), or AmCyan (Thermo Fisher Scientific), and analyzed by flow cytometry using a BD FACS CANTO II system. The results of CCR7 expression in the three tumor fragments are presented in FIG. 13, with representative flow cytometry results for one of the tumors presented in FIG. 14.
Further evidence that SKA-31 enhances expression of CD25 and CCR7 was also obtained. Pre-REP TIL were grown with either IL-2 (6000 IU/mL) alone or with SKA-31 and were analyzed after 21 days (n=14; tumor types: breast cancer (8), melanoma (3), kidney (2), ovarian (1)). CCR7^+ expression was assessed by flow cytometry in CD4^+ (FIG. 15, top) and CD8^+subsets (FIG. 15, bottom). CD25^+expression was assessed by flow cytometry in CD4^+(FIG. 17, top) and CD8′ subsets (FIG. 17, bottom) (n=16, breast cancer (8), melanoma (3), kidney (3), ovarian (2)). In both cases, p values represent the difference between no treatment and SKA-31 using student's unpaired T test, and p values<0.05 are considered as statistically significant.

For assay [7], the system named is TILs co-cultured with melanoma tumor cells. Nature of the assay: IFN-γ release (ELISA) from TILs prepared with and without SKA-31 co-cultured with melanoma tumor cells. Type of assay: cell-based. Particulars: 24 hours co-culture, 3:1 E:T ratio, vs TILs prepared without SKA-31. The procedure:
FIG. 21 illustrates the results of IFN-γ release as measured by enzyme-linked immunosorbent assay (ELISA). TILs prepared with and without SKA-31 were co-cultured with melanoma tumor cells for 24 hours at a TIL:melanoma cell ratio of 3:1 (i.e., a 3:1 effector:target or E:T ratio). Blocking of the TCR MHC-I was performed using 80 μg/mL of antibody clone W6/32 (BioLegend).
(In general: An ELISA detects its analyte on a solid surface through an enzyme-linked reagent.)

Where [8] appears, read: breast (ER+/PR+/HER2+) tumor fragments.

On to `Nc1nc2c(ccc3ccccc32)s1` [SKA-31, naphtho[1,2-d]thiazol-2-ylamine], for which the “absolute cell counts, CD3^mCD4^m TILs” value in assay [1] (setting [8]) was “increased”. Moreover, the “absolute cell counts, CD3^mCD8^m TILs” value in assay [1] (setting [8]) and in assay [1] (ovarian tumor fragments) was “increased” in each case. Moreover, the “expansion of TILs in REP relative to control without KCa3.1 agonist” value in assay [2] is on record as 1.42 fold. The “CD8+CD27+CD28+ T cell subset” value in assay [3] (p=0.002) is given as “greater expansion”. Besides, the “CD8+CD27+ T cell subset” value in assay [3] (p=0.04) is given as “greater expansion”. Besides, the “CD8+CD28+ T cell subset” value in assay [3] (p=0.04) is recorded as “greater expansion”. Further, the KCa3.1 expression result in assay [4] is recorded as “did not alter KCa3.1 expression”. For the same compound, the “tumor killing (caspase-3)” value in assay [5] (M1032 TIL line) and in assay [5] (M1041 TIL line) was “no adverse effects” in each case. In addition, in assay [6] (pre-REP TIL, IL-2 6000 IU/mL with SKA-31, 21 days, n=14 tumors), the “CCR7+ expression in CD4+ and CD8+ subsets” value is given as “enhances”. Further, the “CD25+ expression in CD4+ and CD8+ subsets” value in assay [6] (pre-REP TIL, IL-2 6000 IU/mL with SKA-31, 21 days, n=16 tumors) is “enhances”. Also, in assay [6] (three tumor fragments (kidney, ER+ breast, melanoma), pre-REP, 100 nM SKA-31 with IL-2, three weeks), the “CCR7+ expression in CD4+ and CD8+ TILs” value is recorded as “increased”. Besides, the IFN-γ release result in assay [7] (one TIL cell line) is “statistically significant increase”; in assay [7] (second TIL cell line) it was “no adverse effect”.
